Reference: patent US10131644B2, “Aryl sultam derivatives as RORc modulators” (Genentech, Inc., priority 2014, dated 2018)

target: T1, RORc (Homo sapiens, UniProt P51449); assay: In vitro RORc ligand binding assay (25-[3H]hydroxycholesterol displacement); conditions: IC50, IC50 values for RORc; unit inferred
T1 sequence (P51449 269-508 limits assumed): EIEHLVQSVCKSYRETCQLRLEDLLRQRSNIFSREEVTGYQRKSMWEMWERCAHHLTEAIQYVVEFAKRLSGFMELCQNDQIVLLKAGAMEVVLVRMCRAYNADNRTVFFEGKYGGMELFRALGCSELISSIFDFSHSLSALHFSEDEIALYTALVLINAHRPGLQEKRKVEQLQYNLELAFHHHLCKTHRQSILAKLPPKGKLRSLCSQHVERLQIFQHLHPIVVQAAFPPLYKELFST

Row | SMILES | IC50 [nM]
1 | COC1(OC)CC(C(N)=O)(c2ccc(CN3[C@@H](C)CC[C@H](c4ccccc4)S3(=O)=O)c(F)c2)C1 [Compound 181, 1-[3-fluoro-4-[[(3S,6R)-3-methyl-1,1-dioxo-6-phenyl-thiazinan-2-yl]methyl]phenyl]-3,3-dimethoxy-cyclobutanecarboxamide] | 23.7
2 | C[C@H]1CC[C@H](c2ccccc2)S(=O)(=O)N1Cc1ccc([C@]2(C(N)=O)C[C@H](O)C2)cc1F [Compound 182, 1-[3-fluoro-4-[[(3S,6R)-3-methyl-1,1-dioxo-6-phenyl-thiazinan-2-yl]methyl]phenyl]-3-hydroxy-cyclobutanecarboxamide] | 37.3
3 | CCOC(=O)[C@H](C)NC1(c2ccc(CN3[C@@H](C)CC[C@H](c4ccccc4)S3(=O)=O)c(F)c2)CCOCC1 [Compound 184, ethyl (2S)-2-[[4-[3-fluoro-4-[[(3S,6R)-3-methyl-1,1-dioxo-6-phenyl-thiazinan-2-yl]methyl]phenyl]tetrahydropyran-4-yl]amino]propanoate] | 40.9
4 | C[C@H]1CC[C@H](c2ccccc2)S(=O)(=O)N1Cc1ccc(C2(OCC(N)=O)COC2)cc1F [Compound 186, 2-[3-[3-fluoro-4-[[(3S,6R)-3-methyl-1,1-dioxo-6-phenyl-thiazinan-2-yl]methyl]phenyl]oxetan-3-yl]oxyacetamide] | 8
5 | C[C@H]1CC[C@H](c2ccccc2)S(=O)(=O)N1Cc1ccc(C2(NCCCO)CCOCC2)cc1F [Compound 187, 3-[[4-[3-fluoro-4-[[(3S,6R)-3-methyl-1,1-dioxo-6-phenyl-thiazinan-2-yl]methyl]phenyl]tetrahydropyran-4-yl]amino]propan-1-ol] | 74
6 | C[C@H]1CC[C@H](c2ccccc2)S(=O)(=O)N1Cc1ccc(C2(N(C)CC(N)=O)CCOCC2)cc1F [Compound 188, 2-[[4-[3-fluoro-4-[[(3S,6R)-3-methyl-1,1-dioxo-6-phenyl-thiazinan-2-yl]methyl]phenyl]tetrahydropyran-4-yl]-methyl-amino]acetamide] | 24
7 | COC(CNC1(c2cc(F)c(CN3[C@@H](C)CC[C@H](c4ccccc4)S3(=O)=O)cc2F)CCOCC1)OC [Compound 189, 4-[2,5-difluoro-4-[[(3S,6R)-3-methyl-1,1-dioxo-6-phenyl-thiazinan-2-yl]methyl]phenyl]-N-(2,2-dimethoxyethyl)tetrahydropyran-4-amine] | 71
8 | C[C@H]1CC[C@H](c2ccccc2)S(=O)(=O)N1Cc1cc(F)c(C2(N)COC2)cc1F [Compound 190, 3-[2,5-difluoro-4-[[(3S,6R)-3-methyl-1,1-dioxo-6-phenyl-thiazinan-2-yl]methyl]phenyl]oxetan-3-amine] | 71.5
9 | C[C@H]1CC[C@H](c2ccccc2)S(=O)(=O)N1Cc1cc(F)c(C2(N[S+]([O-])C(C)(C)C)COC2)cc1F (stereo partly drawn) [Compound 191, N-[3-[2,5-difluoro-4-[[(3S,6R)-3-methyl-1,1-dioxo-6-phenyl-thiazinan-2-yl]methyl]phenyl]oxetan-3-yl]-2-methyl-propane-2-sulfinamide] | 55.3
10 | C[C@H]1CC[C@H](c2ccccc2)S(=O)(=O)N1Cc1cc(F)c(C2(O)COC2)cc1F [Compound 192, 3-[2,5-difluoro-4-[[(3S,6R)-3-methyl-1,1-dioxo-6-phenyl-thiazinan-2-yl]methyl]phenyl]oxetan-3-ol] | 2.65
11 | C[C@H]1CC[C@H](c2ccccc2)S(=O)(=O)N1Cc1cc(F)c(C2(C(N)=O)CC(=O)C2)cc1F [Compound 193, 1-[2,5-difluoro-4-[[(3S,6R)-3-methyl-1,1-dioxo-6-phenyl-thiazinan-2-yl]methyl]phenyl]-3-oxo-cyclobutanecarboxamide] | 8.07
12 | C[C@H]1CC[C@H](c2ccccc2)S(=O)(=O)N1Cc1cc(F)c(C2(C(N)=O)CC(F)(F)C2)cc1F [Compound 194, 1-[2,5-difluoro-4-[[(3S,6R)-3-methyl-1,1-dioxo-6-phenyl-thiazinan-2-yl]methyl]phenyl]-3,3-difluoro-cyclobutanecarboxamide] | 3.05
13 | C[C@H]1CC[C@H](c2ccccc2)S(=O)(=O)N1Cc1cc(F)c(C2(NCC(N)=O)COC2)cc1F [Compound 195, 2-[[3-[2,5-difluoro-4-[[(3S,6R)-3-methyl-1,1-dioxo-6-phenyl-thiazinan-yl]methyl]phenyl]oxetan-3-yl]amino]acetamide] | 35
14 | C[C@H]1CC[C@H](c2ccccc2)S(=O)(=O)N1Cc1ccc(OCC2(C)CCOCC2)cc1F [Example 2, (3S,6R)-2-[2-Fluoro-4-(4-methyl-tetrahydro-pyran-4-ylmethoxy)-benzyl]-3-methyl-6-phenyl-[1,2]thiazinane 1,1-dioxide] | 67
15 | C[C@H]1CC[C@H](c2ccccc2)S(=O)(=O)N1Cc1ccc(OCC2(CO)CCOCC2)cc1F [Example 3, {4-{3-Fluoro-4-((3S,6R)-3-methyl-1,1-dioxo-6-phenyl-[1,2]thiazinan-2-ylmethyl)-phenoxymethyl]-tetrahydro-pyran-4-yl}-methanol] | 82
16 | C[C@H]1CC[C@H](c2ccccc2)S(=O)(=O)N1Cc1ccc(OCC2(CS(C)(=O)=O)CCOCC2)cc1F [Example 4, (3S,6R)-2-[2-Fluoro-4-(4-methanesulfonylmethyl-tetrahydro-pyran-4-ylmethoxy)-benzyl]-3-methyl-6-phenyl-[1,2]thiazinane 1,1-dioxide] | 46
17 | C[C@H]1CC[C@H](c2ccccc2)S(=O)(=O)N1Cc1ccc(OCC2(F)CCOCC2)cc1F [Example 5, (3S,6R)-2-[2-Fluoro-4-(4-fluoro-tetrahydro-pyran-4-ylmethoxy)-benzyl]-3-methyl-6-phenyl-[1,2]thiazinane 1,1-dioxide] | 160
18 | C[C@H]1CC[C@H](c2ccccc2)S(=O)(=O)N1Cc1ccc(OCC2(C#N)CCOCC2)cc1F [Example 6, 4-{3-Fluoro-4-((3S,6R)-3-methyl-1,1-dioxo-6-phenyl-[1,2]thiazinan-2-ylmethyl)-phenoxymethyl]-tetrahydro-pyran-4-carbonitrile] | 220

Second part, the compound after the results:

Row | IC50 [nM] | SMILES
19 | 6.7 | C[C@@H](NC1(c2ccc(CN3[C@@H](C)CC[C@H](c4ccccc4)S3(=O)=O)c(F)c2)CCOCC1)C(N)=O [Compound 180, (2R)-2-[[4-[3-fluoro-4-[[(3S,6R)-3-methyl-1,1-dioxo-6-phenyl-thiazinan-2-yl]methyl]phenyl]tetrahydropyran-4-yl]amino]propanamide]
20 | 55.2 | C[C@H]1CC[C@H](c2ccccc2)S(=O)(=O)N1Cc1ccc([C@]2(C(N)=O)C[C@@H](O)C2)cc1F [Compound 183, 1-[3-fluoro-4-[[(3S,6R)-3-methyl-1,1-dioxo-6-phenyl-thiazinan-2-yl]methyl]phenyl]-3-hydroxy-cyclobutanecarboxamide]
21 | 102 | C[C@H](NC1(c2ccc(CN3[C@@H](C)CC[C@H](c4ccccc4)S3(=O)=O)c(F)c2)CCOCC1)C(N)=O [Compound 185, (2S)-2-[[4-[3-fluoro-4-[[(3S,6R)-3-methyl-1,1-dioxo-6-phenyl-thiazinan-2-yl]methyl]phenyl]tetrahydropyran-4-yl]amino]propanamide]
22 | 1080 | C[C@H]1CC[C@H](c2ccccc2)S(=O)(=O)N1Cc1ccc(C2(C(N)=O)CC2)cc1F [Compound 196, 1-[3-fluoro-4-[[(3S,6R)-3-methyl-1,1-dioxo-6-phenyl-thiazinan-2-yl]methyl]phenyl]cyclopropanecarboxamide]
23 | 330 | CC(=O)N1CCC(O)(c2ccc(CN3[C@@H](C)CC[C@H](c4ccccc4)S3(=O)=O)cc2)CC1 [Example 7, 1-{4-Hydroxy-4-[4-((3S,6R)-3-methyl-1,1-dioxo-6-phenyl-[1,2]thiazinan-2-ylmethyl)-phenyl]-piperidin-1-yl}-ethanone]
24 | 200 | CC(=O)N1CCC(F)(c2ccc(CN3[C@@H](C)CC[C@H](c4ccccc4)S3(=O)=O)cc2)CC1 [Example 8, 1-{4-Fluoro-4-[4-((3S,6R)-3-methyl-1,1-dioxo-6-phenyl-[1,2]thiazinan-2-ylmethyl)-phenyl]-piperidin-1-yl}-ethanone]
25 | 130 | CC(=O)N1CCC(O)(c2ccc(CN3[C@@H](C)CC[C@H](c4ccccc4)S3(=O)=O)c(F)c2)CC1 [Example 9, 1-{4-[3-Fluoro-4-((3S,6R)-3-methyl-1,1-dioxo-6-phenyl-[1,2]thiazinan-2-ylmethyl)-phenyl]-4-hydroxy-piperidin-1-yl}-ethanone]
26 | 150 | C[C@H]1CC[C@H](c2ccccc2)S(=O)(=O)N1Cc1ccc([C@]2(C#N)CC[C@@H](n3cnnc3)CC2)cc1 [Example 10, 1-[4-((3S,6R)-3-Methyl-1,1-dioxo-6-phenyl-[1,2]thiazinan-2-ylmethyl)-phenyl]-4-[1,2,4]triazol-4-yl-cyclohexanecarbonitrile]
27 | 630 | COC(=O)[C@]1(c2ccc(CN3[C@@H](C)CC[C@H](c4ccccc4)S3(=O)=O)cc2)CC[C@@H](n2cnnc2)CC1 [Example 12, 1-[4-((3S,6R)-3-Methyl-1,1-dioxo-6-phenyl-[1,2]thiazinan-2-ylmethyl)-phenyl]-4-[1,2,4]triazol-4-yl-cyclohexanecarboxylic acid methyl ester]
28 | 2700 | C[C@H]1CC[C@H](c2ccccc2)S(=O)(=O)N1Cc1ccc([C@]2(C(=O)O)CC[C@H](n3cnnc3)CC2)cc1 [Example 13, 1-[4-((3S,6R)-3-Methyl-1,1-dioxo-6-phenyl-[1,2]thiazinan-2-ylmethyl)-phenyl]-4-[1,2,4]triazol-4-yl-cyclohexane-carboxylic acid]
29 | 1800 | C[C@H]1CC[C@H](c2ccccc2)S(=O)(=O)N1Cc1ccc([C@]2(CO)CC[C@H](n3cnnc3)CC2)cc1 [Example 14, {1-[4-((3S,6R)-3-Methyl-1,1-dioxo-6-phenyl-[1,2]thiazinan-2-ylmethyl)-phenyl]-4-[1,2,4]triazol-4-yl-cyclohexyl}-methanol]
